The numbers were not newly measured in patent US10919926B2, “Compound or salt thereof, natural killer T cell activator, and pharmaceutical composition” (KEIO UNIVERSITY, priority 2016, dated 2021), which cites them from elsewhere.

This series deals with RBL-CD1d cells and NKT hybridoma 2E10 cells. Particulars: previously known.

For `CCCCCCCCCCCCCCCCCCCCCCCCCC(=O)N[C@@H](CO[C@H]1O[C@H](CO)[C@H](O)[C@H](O)[C@H]1O)[C@H](O)[C@H](O)CCCCCCCCCCCCCC` [α-GalCer, α-galactosylceramide], the “cytokine-inducing capacity compared with β-GalCer and C19” value was “higher than β-GalCer and C19”.
